Experimental data taken from ChEMBL document CHEMBL3044556, “Managing weeds with drip-applied herbicides in tomato” (2008).

Columns and labels:
Format in all cases: functional
Cyperus [1] = assay: Pre-emergence herbicidal activity against Cyperus in tomato field assessed as number of weeds at 4.56 kg/ha applied through drip lines/backpack-spray on week 3 to 4 before transplanting measured 7 weeks after treatment (reference value: 3 plants/m2)
Poaceae [2] = assay: Pre-emergence herbicidal activity against Poaceae (grass family) in tomato field assessed as number of weeds at 4.56 kg/ha applied through drip lines/backpack-spray on week 3 to 4 before transplanting measured 7 weeks after treatment (reference value: 6 plants/m2)
Eleusine indica [3] = assay: Pre-emergence herbicidal activity against Eleusine indica in tomato field assessed as number of weeds at 4.56 kg/ha applied through drip lines/backpack-spray on week 3 to 4 before transplanting measured 12 weeks after treatment (reference value: 9 plants/m2)
Digitaria [4] = assay: Pre-emergence herbicidal activity against Digitaria spp. in tomato field assessed as number of weeds at 4.56 kg/ha applied through drip lines/backpack-spray on week 3 to 4 before transplanting measured 12 weeks after treatment (reference value: 9 plants/m2)
Echinochloa colona [5] = assay: Pre-emergence herbicidal activity against Echinochloa colona in tomato field assessed as number of weeds at 4.56 kg/ha applied through drip lines/backpack-spray on week 3 to 4 before transplanting measured 12 weeks after treatment (reference value: 9 plants/m2)
Portulaca oleracea [6] = assay: Pre-emergence herbicidal activity against Portulaca oleracea in tomato field assessed as number of weeds at 4.56 kg/ha applied through drip lines/backpack-spray on week 3 to 4 before transplanting measured 7 weeks after treatment (reference value: 9 plants/m2); details: pooled result: one value given for 8 cell lines, strains, targets or settings
Amaranthus dubius [7] = assay: Pre-emergence herbicidal activity against Amaranthus dubius in tomato field assessed as number of weeds at 4.56 kg/ha applied through drip lines/backpack-spray on week 3 to 4 before transplanting measured 12 weeks after treatment (reference value: 9 plants/m2)
Boerhavia erecta [8] = assay: Pre-emergence herbicidal activity against Boerhavia erecta in tomato field assessed as number of weeds at 4.56 kg/ha applied through drip lines/backpack-spray on week 3 to 4 before transplanting measured 12 weeks after treatment (reference value: 9 plants/m2)
Corynandra viscosa [9] = assay: Pre-emergence herbicidal activity against Cleome viscosa in tomato field assessed as number of weeds at 4.56 kg/ha applied through drip lines/backpack-spray on week 3 to 4 before transplanting measured 12 weeks after treatment (reference value: 9 plants/m2)
Portulaca oleracea [10] = assay: Pre-emergence herbicidal activity against Portulaca oleracea in tomato field assessed as number of weeds at 4.56 kg/ha applied through drip lines/backpack-spray on week 3 to 4 before transplanting measured 12 weeks after treatment (reference value: 9 plants/m2)
Trianthema [11] = assay: Pre-emergence herbicidal activity against Trianthema spp. in tomato field assessed as number of weeds at 4.56 kg/ha applied through drip lines/backpack-spray on week 3 to 4 before transplanting measured 12 weeks after treatment (reference value: 9 plants/m2)
Cyperus [12] = assay: Pre-emergence herbicidal activity against Cyperus in tomato field assessed as number of weeds at 4.56 kg/ha applied through drip lines/backpack-spray on week 3 to 4 before transplanting measured 12 weeks after treatment (reference value: 5 plants/m2)
Poaceae [13] = assay: Pre-emergence herbicidal activity against Poaceae (grass family) in tomato field assessed as number of weeds at 4.56 kg/ha applied through drip lines/backpack-spray on week 3 to 4 before transplanting measured 12 weeks after treatment (reference value: 8 plants/m2)
Boerhavia erecta [14] = assay: Pre-emergence herbicidal activity against Boerhavia erecta in tomato field assessed as number of extra-large fruits at 4.56 kg/ha applied through drip lines/backpack-spray on week 3 to 4 before transplanting (reference value: 21.3 x 10 '3 ha); details: pooled result: one value given for 8 cell lines, strains, targets or settings
Eleusine indica [15] = assay: Pre-emergence herbicidal activity against Eleusine indica in tomato field assessed as total number of fruits at 4.56 kg/ha applied through drip lines/backpack-spray on week 3 to 4 before transplanting (reference value: 49.5 x 10 '3 ha); details: pooled result: one value given for 8 cell lines, strains, targets or settings
Eleusine indica [16] = assay: Pre-emergence herbicidal activity against Eleusine indica in tomato field assessed as total fruit weight at 4.56 kg/ha applied through drip lines/backpack-spray on week 3 to 4 before transplanting (reference value: 13.7 t/ha); details: pooled result: one value given for 8 cell lines, strains, targets or settings
Eleusine indica [17] = assay: Pre-emergence herbicidal activity against Eleusine indica in tomato field assessed as extra-large fruit weight at 4.56 kg/ha applied through drip lines/backpack-spray on week 3 to 4 before transplanting (reference value: 7.3 t/ha); details: pooled result: one value given for 8 cell lines, strains, targets or settings
Digitaria [18] = assay: Pre-emergence herbicidal activity against Digitaria spp. in tomato field assessed as number of weeds at 0.80 kg/ha applied through drip lines/backpack-spray on week 3 to 4 before transplanting measured 12 weeks after treatment (reference value: 9 plants/m2)
Echinochloa colona [19] = assay: Pre-emergence herbicidal activity against Echinochloa colona in tomato field assessed as number of weeds at 0.80 kg/ha applied through drip lines/backpack-spray on week 3 to 4 before transplanting measured 12 weeks after treatment (reference value: 9 plants/m2)
Amaranthus dubius [20] = assay: Pre-emergence herbicidal activity against Amaranthus dubius in tomato field assessed as number of weeds at 0.80 kg/ha applied through drip lines/backpack-spray on week 3 to 4 before transplanting measured 12 weeks after treatment (reference value: 9 plants/m2)
Boerhavia erecta [21] = assay: Pre-emergence herbicidal activity against Boerhavia erecta in tomato field assessed as number of weeds at 0.80 kg/ha applied through drip lines/backpack-spray on week 3 to 4 before transplanting measured 12 weeks after treatment (reference value: 9 plants/m2)
Boerhavia erecta [22] = assay: Pre-emergence herbicidal activity against Boerhavia erecta in tomato field assessed as number of weeds at 0.80 kg/ha applied through drip lines/backpack-spray on week 3 to 4 before transplanting measured 7 weeks after treatment (reference value: 9 plants/m2)
Corynandra viscosa [23] = assay: Pre-emergence herbicidal activity against Cleome viscosa in tomato field assessed as number of weeds at 0.80 kg/ha applied through drip lines/backpack-spray on week 3 to 4 before transplanting measured 7 weeks after treatment (reference value: 9 plants/m2)
Portulaca oleracea [24] = assay: Pre-emergence herbicidal activity against Portulaca oleracea in tomato field assessed as number of weeds at 0.80 kg/ha applied through drip lines/backpack-spray on week 3 to 4 before transplanting measured 7 weeks after treatment (reference value: 9 plants/m2)
Trianthema [25] = assay: Pre-emergence herbicidal activity against Trianthema spp. in tomato field assessed as number of weeds at 0.80 kg/ha applied through drip lines/backpack-spray on week 3 to 4 before transplanting measured 7 weeks after treatment (reference value: 9 plants/m2)
Cyperus [26] = assay: Pre-emergence herbicidal activity against Cyperus in tomato field assessed as number of weeds at 0.80 kg/ha applied through drip lines/backpack-spray on week 3 to 4 before transplanting measured 7 weeks after treatment (reference value: 3 plants/m2)
Poaceae [27] = assay: Pre-emergence herbicidal activity against Poaceae (grass family) in tomato field assessed as number of weeds at 0.80 kg/ha applied through drip lines/backpack-spray on week 3 to 4 before transplanting measured 7 weeks after treatment (reference value: 6 plants/m2)
Corynandra viscosa [28] = assay: Pre-emergence herbicidal activity against Cleome viscosa in tomato field assessed as number of weeds at 0.80 kg/ha applied through drip lines/backpack-spray on week 3 to 4 before transplanting measured 12 weeks after treatment (reference value: 9 plants/m2)
Portulaca oleracea [29] = assay: Pre-emergence herbicidal activity against Portulaca oleracea in tomato field assessed as number of weeds at 0.80 kg/ha applied through drip lines/backpack-spray on week 3 to 4 before transplanting measured 12 weeks after treatment (reference value: 9 plants/m2)
Trianthema [30] = assay: Pre-emergence herbicidal activity against Trianthema spp. in tomato field assessed as number of weeds at 0.80 kg/ha applied through drip lines/backpack-spray on week 3 to 4 before transplanting measured 12 weeks after treatment (reference value: 9 plants/m2)
Cyperus [31] = assay: Pre-emergence herbicidal activity against Cyperus in tomato field assessed as number of weeds at 0.80 kg/ha applied through drip lines/backpack-spray on week 3 to 4 before transplanting measured 12 weeks after treatment (reference value: 5 plants/m2)
Poaceae [32] = assay: Pre-emergence herbicidal activity against Poaceae (grass family) in tomato field assessed as number of weeds at 0.80 kg/ha applied through drip lines/backpack-spray on week 3 to 4 before transplanting measured 12 weeks after treatment (reference value: 8 plants/m2)
Eleusine indica [33] = assay: Pre-emergence herbicidal activity against Eleusine indica in tomato field assessed as number of weeds at 0.80 kg/ha applied through drip lines/backpack-spray on week 3 to 4 before transplanting measured 7 weeks after treatment (reference value: 9 plants/m2)
Digitaria [34] = assay: Pre-emergence herbicidal activity against Digitaria spp. in tomato field assessed as number of weeds at 0.80 kg/ha applied through drip lines/backpack-spray on week 3 to 4 before transplanting measured 7 weeks after treatment (reference value: 9 plants/m2)
Echinochloa colona [35] = assay: Pre-emergence herbicidal activity against Echinochloa colona in tomato field assessed as number of weeds at 0.80 kg/ha applied through drip lines/backpack-spray on week 3 to 4 before transplanting measured 7 weeks after treatment (reference value: 9 plants/m2)
Amaranthus dubius [36] = assay: Pre-emergence herbicidal activity against Amaranthus dubius in tomato field assessed as number of weeds at 0.80 kg/ha applied through drip lines/backpack-spray on week 3 to 4 before transplanting measured 7 weeks after treatment (reference value: 9 plants/m2)
Eleusine indica [37] = assay: Pre-emergence herbicidal activity against Eleusine indica in tomato field assessed as total fruit weight at 0.80 kg/ha applied through drip lines/backpack-spray on week 3 to 4 before transplanting (reference value: 13.7 t/ha); details: pooled result: one value given for 8 cell lines, strains, targets or settings
Eleusine indica [38] = assay: Pre-emergence herbicidal activity against Eleusine indica in tomato field assessed as number of weeds at 0.80 kg/ha applied through drip lines/backpack-spray on week 3 to 4 before transplanting measured 12 weeks after treatment (reference value: 9 plants/m2)
Eleusine indica [39] = assay: Pre-emergence herbicidal activity against Eleusine indica in tomato field assessed as extra-large fruit weight at 0.80 kg/ha applied through drip lines/backpack-spray on week 3 to 4 before transplanting (reference value: 7.3 t/ha)
Digitaria [40] = assay: Pre-emergence herbicidal activity against Digitaria spp. in tomato field assessed as extra-large fruit weight at 0.80 kg/ha applied through drip lines/backpack-spray on week 3 to 4 before transplanting (reference value: 7.3 t/ha)
Echinochloa colona [41] = assay: Pre-emergence herbicidal activity against Echinochloa colona in tomato field assessed as extra-large fruit weight at 0.80 kg/ha applied through drip lines/backpack-spray on week 3 to 4 before transplanting (reference value: 7.3 t/ha)
Amaranthus dubius [42] = assay: Pre-emergence herbicidal activity against Amaranthus dubius in tomato field assessed as extra-large fruit weight at 0.80 kg/ha applied through drip lines/backpack-spray on week 3 to 4 before transplanting (reference value: 7.3 t/ha)
Trianthema [43] = assay: Pre-emergence herbicidal activity against Trianthema spp. in tomato field assessed as extra-large fruit weight at 0.80 kg/ha applied through drip lines/backpack-spray on week 3 to 4 before transplanting (reference value: 7.3 t/ha)
Eleusine indica [44] = assay: Pre-emergence herbicidal activity against Eleusine indica in tomato field assessed as total number of fruits at 0.80 kg/ha applied through drip lines/backpack-spray on week 3 to 4 before transplanting (reference value: 49.5 x 10 '3 ha); details: pooled result: one value given for 8 cell lines, strains, targets or settings
Eleusine indica [45] = assay: Pre-emergence herbicidal activity against Eleusine indica in tomato field assessed as number of extra-large fruits at 0.80 kg/ha applied through drip lines/backpack-spray on week 3 to 4 before transplanting (reference value: 21.3 x 10 '3 ha); details: pooled result: one value given for 8 cell lines, strains, targets or settings
Boerhavia erecta [46] = assay: Pre-emergence herbicidal activity against Boerhavia erecta in tomato field assessed as extra-large fruit weight at 0.80 kg/ha applied through drip lines/backpack-spray on week 3 to 4 before transplanting (reference value: 7.3 t/ha)
Corynandra viscosa [47] = assay: Pre-emergence herbicidal activity against Cleome viscosa in tomato field assessed as extra-large fruit weight at 0.80 kg/ha applied through drip lines/backpack-spray on week 3 to 4 before transplanting (reference value: 7.3 t/ha)
Portulaca oleracea [48] = assay: Pre-emergence herbicidal activity against Portulaca oleracea in tomato field assessed as extra-large fruit weight at 0.80 kg/ha applied through drip lines/backpack-spray on week 3 to 4 before transplanting (reference value: 7.3 t/ha)

## CCCCN(CC)C(=O)SCCC [PEBULATE]
Cyperus [1]
  Activity: 4 /m2
Poaceae [2]
  Activity: 4 /m2
Eleusine indica [3]
  Activity: 8 /m2
Digitaria [4]
  Activity: 8 /m2
Echinochloa colona [5]
  Activity: 8 /m2
Portulaca oleracea [6]
  Activity: 14 /m2
Amaranthus dubius [7]
  Activity: 8 /m2
Boerhavia erecta [8]
  Activity: 8 /m2
Corynandra viscosa [9]
  Activity: 8 /m2
Portulaca oleracea [10]
  Activity: 8 /m2
Trianthema [11]
  Activity: 8 /m2
Cyperus [12]
  Activity: 6 /m2
Poaceae [13]
  Activity: 5 /m2
Boerhavia erecta [14]
  fruit count: 24.5 10³ fruits/ha
Eleusine indica [15]
  fruit number: 55 10^3 fruits/ha
Eleusine indica [16]
  Activity: 15.3 tons/ha
Eleusine indica [17]
  Activity: 8.4 tons/ha

## CCCN(CCC)c1c([N+](=O)[O-])cc(C(F)(F)F)cc1[N+](=O)[O-] [TRIFLURALIN]
Digitaria [18]
  Activity: 7 /m2
Echinochloa colona [19]
  Activity: 7 /m2
Amaranthus dubius [20]
  Activity: 7 /m2
Boerhavia erecta [21]
  Activity: 7 /m2
Boerhavia erecta [22]
  Activity: 10 /m2
Corynandra viscosa [23]
  Activity: 10 /m2
Portulaca oleracea [24]
  Activity: 10 /m2
Trianthema [25]
  Activity: 10 /m2
Cyperus [26]
  Activity: 5 /m2
Poaceae [27]
  Activity: 6 /m2
Corynandra viscosa [28]
  Activity: 7 /m2
Portulaca oleracea [29]
  Activity: 7 /m2
Trianthema [30]
  Activity: 7 /m2
Cyperus [31]
  Activity: 8 /m2
Poaceae [32]
  Activity: 5 /m2
Eleusine indica [33]
  Activity: 10 /m2
Digitaria [34]
  Activity: 10 /m2
Echinochloa colona [35]
  Activity: 10 /m2
Amaranthus dubius [36]
  Activity: 10 /m2
Eleusine indica [37]
  Activity: 15.9 tons/ha
Eleusine indica [38]
  Activity: 7 /m2
Eleusine indica [39]
  Activity: 9.6 tons/ha
Digitaria [40]
  Activity: 9.6 tons/ha
Echinochloa colona [41]
  Activity: 9.6 tons/ha
Amaranthus dubius [42]
  Activity: 9.6 tons/ha
Trianthema [43]
  Activity: 9.6 tons/ha
Eleusine indica [44]
  fruit number: 59.5 10^3 fruits/ha
Eleusine indica [45]
  fruit count: 29.5 10^3 fruits/ha
Boerhavia erecta [46]
  Activity: 9.6 tons/ha
Corynandra viscosa [47]
  Activity: 9.6 tons/ha
Portulaca oleracea [48]
  Activity: 9.6 tons/ha
